# Patent US10365289B2 (Max-Planck-Gesellschaft zur Forderung der Wissenschaften …, priority 2014, dated 2019)
# How the values were obtained:
# [1] = described ranking of GA isoforms; cited from earlier work
# [2] = target: T1, GID1B based sensor (GID1B.5) (Arabidopsis thaliana, UniProt Q9LYC1, V53A); test: yeast solid media luciferase assay, GID1B based sensor (GID1B.5) with overlapping firefly luciferase fragments; format: cell-based; settings: GA3 100 μM vs mock (100% ethanol), FIG. 7
# T1 construct: a GID1B based sensor with overlapping firefly luciferase fragments (plasmid IR235); expressed in transfected cells; host or cells: Saccharomyces cerevisiae (yeast), plasmid printed as IR235
# Protocol: In order to assess the impact of the presence of overlapping parts of firefly luciferase on the GID1B based sensor (GID1B.5) at the split point, a GID1B based sensor with overlapping firefly luciferase fragments (plasmid IR235) was compared in a Y2H assay to a GID1B based sensor without overlapping firefly luciferase fragments (plasmid IR241).
# Four representative colonies were selected and plated onto Nylon membranes as described before. After 3 days at 30° C. the membranes were incubated in selective media containing luciferase substrate for 4 hours in dark at room temperature. Each replicate was subsequently transferred to plates containing selective media supplemented with luciferase substrate. […] Luciferase activity was recorded as indicated before.
# [3] = target: T2, Arabidopsis thaliana GID1C based sensor (Arabidopsis thaliana, UniProt Q940G6); test: in planta assay: GA sensor in ga1-3 mutant plants sprayed with GA3, luciferase imaging; format: in vivo; settings: ga1-3 plants containing the sensor, sprayed with 100 μM GA3 solution vs mock; FIG. 4
# T2 construct: expressed in transfected cells; host or cells: Arabidopsis thaliana ga1-3 mutant plants (Ler background), Agrobacterium floral dip, construct IR216 (35S::GID1CLUC in pFK210)
# Source text: To validate in planta the results obtained in yeast, the inventors introduced the GA sensors under the control of the constitutive viral promoter 35S into Arabidopsis thaliana plants. The constructs IR208 and IR216 were independently introduced using the floral dip method of Agrobacterium-mediated transformation into the Arabidopsis thaliana Ler-1 (Landsberg erecta) wild-type strain and its isogenic ga1-3 mutant strain (containing a deletion in the gene for the enzyme that catalyzes an early step in the synthesis of GA: Sun et al., Plant Cell, 1992, 4, 119-128). Plants were grown in soil under Basta™ selection and short day conditions (8h light/16h dark).
# In this case, the Arabidopsis thaliana GID1C based sensor produced a faster and stronger signal than the Arabidopsis thaliana GID1B based sensor. To ascertain whether the reporter system according to the invention could quantitatively report the presence of endogenous bioactive GA isoforms, the inventors grew the Arabidopsis thaliana Ler-1 wild-type plants containing the Arabidopsis thaliana GID1C based sensor along with Arabidopsis thaliana GA3ox1-GUS and GA3ox2-GUS reporter lines. The GA sensor was active in a pattern that indicated the presence of active forms of GA in emerging leaves and at the base and vasculature of older leaves. […]
# [4] = target: T3, GID1C based sensor peptide with co-expression of a DELLA protein (GAI) (Arabidopsis thaliana, UniProt Q940G6); test: yeast liquid luciferase assay, GID1C based sensor with co-expression of the DELLA protein GAI; format: cell-based; settings: Saccharomyces cerevisiae, GAI co-expressed; FIG. 6D
# T3 construct: expressed in transfected cells; host or cells: Saccharomyces cerevisiae AH109, plasmids IR214 (GID1CLUC-pDest22) and IR236 (GAI in pDEST32)
# Protocol: Two representative colonies were selected and plated onto Nylon membranes as described before. After 3 days at 30° C. the membranes were incubated in selective media containing luciferase substrate for 4 hours in dark at room temperature. […] Luciferase activity was recorded as indicated before. For liquid assays, the inventors inoculated one representative colony for each version of the sensor in 5 ml of selective media (YNB, MPBlo, supplemented with CSM Trp^−, Bio 101) containing luciferase substrate and grown under shaking at 28° C. for 18 hours. […] Plates were incubated for 16 hours at 28° C. in a cabinet and luciferase activity was recorded during the entire period of the experiment using a Topcount™ device (Perkin Elmer).
# First, the coding sequence of the DELLA protein GAI (At1g14920) was cloned into the yeast plasmid pDEST32 (Invitrogen) yielding the construct IR236. Subsequently, yeast cells were transformed with the plasmids IR206 or IR214 in combination with the empty pDEST32 vector or IR236. Following the same approach than described before in Example 3, we assayed 4 GA isoforms, the same four than in the former assay. The experimental setting was the same than in Example 3 with the difference that the selective media used was deficient in Trp and Leu (YNB, MPBlo, supplemented with CSM Trp^−Leu^−, Bio 101) to select for the presence of both plasmids within the yeast cells. […]
# T3 sequence (Q940G6 with tags, fused parts or gaps): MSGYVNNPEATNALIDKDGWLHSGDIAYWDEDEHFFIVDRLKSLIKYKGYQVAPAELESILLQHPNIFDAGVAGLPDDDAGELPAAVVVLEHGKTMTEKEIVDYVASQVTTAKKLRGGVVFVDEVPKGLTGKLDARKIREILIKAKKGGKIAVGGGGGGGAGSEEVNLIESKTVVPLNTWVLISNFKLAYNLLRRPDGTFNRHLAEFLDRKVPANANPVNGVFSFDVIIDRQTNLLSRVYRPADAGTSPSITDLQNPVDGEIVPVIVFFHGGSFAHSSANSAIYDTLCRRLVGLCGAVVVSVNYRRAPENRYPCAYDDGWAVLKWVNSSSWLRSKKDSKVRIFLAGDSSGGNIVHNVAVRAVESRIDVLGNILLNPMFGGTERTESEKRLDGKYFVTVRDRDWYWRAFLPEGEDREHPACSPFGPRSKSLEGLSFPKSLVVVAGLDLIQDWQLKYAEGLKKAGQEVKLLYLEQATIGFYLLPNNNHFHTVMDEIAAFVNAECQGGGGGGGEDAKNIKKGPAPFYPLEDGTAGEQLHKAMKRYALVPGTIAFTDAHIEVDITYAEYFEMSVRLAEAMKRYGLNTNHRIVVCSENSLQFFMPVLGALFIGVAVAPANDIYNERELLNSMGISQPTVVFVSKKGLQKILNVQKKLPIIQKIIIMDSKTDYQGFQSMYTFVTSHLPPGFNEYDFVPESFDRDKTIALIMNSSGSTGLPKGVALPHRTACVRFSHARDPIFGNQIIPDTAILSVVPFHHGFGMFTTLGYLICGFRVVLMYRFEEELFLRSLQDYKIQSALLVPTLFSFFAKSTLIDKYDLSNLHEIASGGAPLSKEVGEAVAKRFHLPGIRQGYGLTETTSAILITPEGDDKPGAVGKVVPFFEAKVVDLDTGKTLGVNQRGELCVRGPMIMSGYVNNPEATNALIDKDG
# T3 sequence (Q9LQT8 2-533 partner limits assumed): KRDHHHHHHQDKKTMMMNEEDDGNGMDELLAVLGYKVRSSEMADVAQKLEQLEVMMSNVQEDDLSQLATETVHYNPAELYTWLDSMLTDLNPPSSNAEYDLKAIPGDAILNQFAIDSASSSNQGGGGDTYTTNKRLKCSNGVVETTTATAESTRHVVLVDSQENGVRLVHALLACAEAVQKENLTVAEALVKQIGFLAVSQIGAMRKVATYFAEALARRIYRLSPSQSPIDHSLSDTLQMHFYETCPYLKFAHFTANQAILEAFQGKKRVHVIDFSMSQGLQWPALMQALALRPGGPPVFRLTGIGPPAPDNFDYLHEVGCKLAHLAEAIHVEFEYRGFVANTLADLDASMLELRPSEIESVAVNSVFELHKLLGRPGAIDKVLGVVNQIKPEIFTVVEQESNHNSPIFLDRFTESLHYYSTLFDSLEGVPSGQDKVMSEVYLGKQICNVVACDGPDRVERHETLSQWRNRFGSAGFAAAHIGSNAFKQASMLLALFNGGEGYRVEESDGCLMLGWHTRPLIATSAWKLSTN
# T2 sequence (Q940G6 with tags, fused parts or gaps): as the sequence (Q940G6 with tags, fused parts or gaps) above
# T1 sequence (Q9LYC1 other isoform, or with tags, fused parts or gaps V53A): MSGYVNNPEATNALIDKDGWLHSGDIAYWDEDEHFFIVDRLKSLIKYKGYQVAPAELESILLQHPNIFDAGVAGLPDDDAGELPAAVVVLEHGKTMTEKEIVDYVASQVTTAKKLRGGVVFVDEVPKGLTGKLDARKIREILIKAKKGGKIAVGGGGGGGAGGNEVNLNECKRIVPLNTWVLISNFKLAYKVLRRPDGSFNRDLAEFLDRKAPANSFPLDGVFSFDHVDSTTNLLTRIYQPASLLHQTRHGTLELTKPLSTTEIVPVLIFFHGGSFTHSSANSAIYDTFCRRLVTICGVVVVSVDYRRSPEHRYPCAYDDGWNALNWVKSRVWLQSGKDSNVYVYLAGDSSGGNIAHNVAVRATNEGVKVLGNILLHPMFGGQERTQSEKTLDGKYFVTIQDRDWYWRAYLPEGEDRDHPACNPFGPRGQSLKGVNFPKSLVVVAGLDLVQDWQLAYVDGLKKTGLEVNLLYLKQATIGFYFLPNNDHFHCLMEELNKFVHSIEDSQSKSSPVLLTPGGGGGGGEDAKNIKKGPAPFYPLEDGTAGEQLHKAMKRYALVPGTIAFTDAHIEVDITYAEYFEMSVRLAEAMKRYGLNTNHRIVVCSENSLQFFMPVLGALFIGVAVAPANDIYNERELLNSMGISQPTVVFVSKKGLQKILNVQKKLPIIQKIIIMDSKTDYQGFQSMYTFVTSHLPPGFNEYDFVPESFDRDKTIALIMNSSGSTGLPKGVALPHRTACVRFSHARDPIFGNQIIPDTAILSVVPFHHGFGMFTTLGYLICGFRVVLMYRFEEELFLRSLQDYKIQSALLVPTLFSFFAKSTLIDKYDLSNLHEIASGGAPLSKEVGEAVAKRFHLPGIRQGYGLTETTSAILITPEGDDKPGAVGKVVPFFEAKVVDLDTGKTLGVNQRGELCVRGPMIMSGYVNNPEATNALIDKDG
Compound,biological activity in planta assay [1],luciferase signal [2],bioluminescence upon luciferase substrate application [3],luciferase signal [4]
C=C1C[C@]23C[C@@]1(O)CC[C@H]2[C@@]12CC[C@H](O)[C@@](C)(C(=O)O1)[C@H]2[C@@H]3C(=O)O [GA1],less activity,,,
"C=C1C[C@]23C[C@@]1(O)CC[C@H]2[C@@]12C=C[C@H](O)[C@@](C)(C(=O)O1)[C@H]2[C@@H]3C(=O)O [GA3, gibberellic acid]",,clearly higher,showed bioluminescence,
"C=C1C[C@]23C[C@H]1CC[C@H]2[C@@]12CC[C@H](O)[C@@](C)(C(=O)O1)[C@H]2[C@@H]3C(=O)OC [GA4-methylester, GA4-methyl ester]",barely active,,,triggered luciferase signal
C=C1C[C@]23C[C@H]1CC[C@H]2[C@@]12CC[C@H](O)[C@@](C)(C(=O)O1)[C@H]2[C@@H]3C(=O)O [GA4],most biologically active,,,
